# Data from patent US7183106B1, “Bacterial inosine 5′-monophosphate dehydrogenase (“IMPDH”) DNA as a dominant selectable marker in mammals and other eukaryotes” (The United States of America as represented by the United …, priority 2004, dated 2007).
# Assays:
# Assay in all cases: MPA toxicity by MTT assay
# [1] = system: COS7 cells; format: cell-based, monkey
# Procedure: The mammalian cells (2×10^7) (i.e. V79, MDA-MB-231, PC3, COS7) were washed once with phosphate buffered saline (PBS), resuspended in 400 μl of Cytomix buffer, placed in an electroporation cuvette and transfected with 10 μg of DNA by electroporation at 200V, 30 ms, in an ElectroSquarePorator T280 electroporator (BTX, Inc., San Diego, Calif.). Immediately after electroporation, the cuvettes were placed on ice for 10–15 min. After that the cells were washed once in PBS and 1×10^6 viable cells, as determined by trypan blue exclusion, were re-suspended in 10 ml of growth medium in 100 mm tissue culture plates, incubated overnight at 37° C. and treated the next day with 0.8 μg/ml of MPA (stock concentration at 14.2 mg/ml in DMSO, Sigma, St. Louis, Mo.) or 600 μg/ml of G418. For the different assays, cells were obtained from either individual or pooled MPA-resistant colonies. For colony isolation, visible individual colonies were each picked and aspirated into a glass Pasteur pipette and transferred into a well of a 24-well tissue culture plate. The next day, after rinsing the wells with the colonies with PBS and incubation for 1–2 min in a drop of a trypsin/EDTA solution, the cells within each well were dispersed by forceful pipetting. Next, the cells were incubated in growth medium to generate a monolayer culture, which was used to determine the cells' susceptibility to MPA. […] MPA toxicity was determined by the MTT (methylthiazoletetrazolium) assay (described in detail below) while the expression of the green fluorescent protein (GFP) was detected by fluorescence microscopy and/or flow cytometry.
# Cell survival and proliferation was measured using the MTT assay, which detects active mitochondria and as a result viable cells. […] The plates were then centrifuged at 1000 rpm for 5 min, supernatants discarded and 100 µl of DMSO added per well, and the plates were read at 540 nm using a microtiter plate reader.
# [2] = system: V79 cells; format: cell-based, Chinese hamster
# Procedure: (§1) The mammalian cells (2×10^7) (i.e. V79, MDA-MB-231, PC3, COS7) were washed once with phosphate buffered saline (PBS), resuspended in 400 μl of Cytomix buffer, placed in an electroporation cuvette and transfected with 10 μg of DNA by electroporation at 200V, 30 ms, in an ElectroSquarePorator T280 electroporator (BTX, Inc., San Diego, Calif.). Immediately after electroporation, the cuvettes were placed on ice for 10–15 min. After that the cells were washed once in PBS and 1×10^6 viable cells, as determined by trypan blue exclusion, were re-suspended in 10 ml of growth medium in 100 mm tissue culture plates, incubated overnight at 37° C. and treated the next day with 0.8 μg/ml of MPA (stock concentration at 14.2 mg/ml in DMSO, Sigma, St. Louis, Mo.) or 600 μg/ml of G418. For the different assays, cells were obtained from either individual or pooled MPA-resistant colonies. For colony isolation, visible individual colonies were each picked and aspirated into a glass Pasteur pipette and transferred into a well of a 24-well tissue culture plate. The next day, after rinsing the wells with the colonies with PBS and incubation for 1–2 min in a drop of a trypsin/EDTA solution, the cells within each well were dispersed by forceful pipetting. Next, the cells were incubated in growth medium to generate a monolayer culture, which was used to determine the cells' susceptibility to MPA. Cultures were also obtained from single MPA-resistant cells derived from pooled colonies by seeding 2.5 cells/ml into 96-well flat-bottom microtiter plates in 200 μl of growth medium/well and only cultures deriving from wells that were initially found to contain single cells were used. MPA toxicity was determined by the MTT (methylthiazoletetrazolium) assay (described in detail below) while the expression of the green fluorescent protein (GFP) was detected by fluorescence microscopy and/or flow cytometry.
# (§2) Cell survival and proliferation was measured using the MTT assay, which detects active mitochondria and as a result viable cells. For this assay, 2×10^4 cells were suspended in 200 μl of growth medium/well in 96-well flat-bottom microtiter plates with various stimuli and incubated at 37° C. After 6 d, 10 μl of MTT solution (5 mg/ml in PBS) (Sigma, St. Louis, Mo.) was added to each well and the plates were incubated for an additional 4 h at 37° C. In the case of V79 cells, which grow twice as fast as the other cell lines, the MTT solution was added after 3 d. The plates were then centrifuged at 1000 rpm for 5 min, supernatants discarded and 100 µl of DMSO added per well, and the plates were read at 540 nm using a microtiter plate reader.
# [3] = system: MDA-MB-231 cells; format: cell-based, human
# Procedure: as §1, §2
# [4] = system: PC3 cells; format: cell-based, human
# Procedure: as §1, §2
smiles,measurement,setting,value
"COc1c(C)c2c(c(O)c1C/C=C(\C)CCC(=O)O)C(=O)OC2 [MPA, mycophenolic acid]",MTT staining of control cultures after 4 weeks of MPA treatment,"[1]; control (not transfected parental) COS7 cultures, 4 weeks",no MTT staining above background levels
same,MPA concentration to whose cytotoxic effect the cells were resistant,[1]; single cell-derived cultures from pooled MPA-resistant COS7 colonies,up to 50 μg/ml
same,Time after MPA treatment at which growth inhibition was detected,[1]; wild type COS7 cells,6 days
same,MPA concentration to whose cytotoxic effect the cells were resistant,"[2]; 7 individual MPA-resistant V79 colonies (pFLAG-IMPDH transfected), MTT assay",up to 50 μg/ml
same,MPA concentration at which cells failed to grow,[2]; parental (not transfected) V79 cells,≤ 0.8 µg/mL
same,MPA concentration to whose cytotoxic effect the cells were resistant,[2]; single cell-derived cultures from pooled MPA-resistant V79 colonies,up to 50 μg/ml
same,Time after MPA treatment at which growth inhibition was detected,[2]; wild type V79 cells,3 days
same,MTT staining of control cultures after 4 weeks of MPA treatment,"[3]; control (not transfected parental) MDA-MB-231 cultures, 4 weeks",no MTT staining above background levels
same,MPA concentration to whose cytotoxic effect the cells were resistant,[3]; single cell-derived cultures from pooled MPA-resistant MDA-MB-231 colonies,up to 50 μg/ml
same,Time after MPA treatment at which growth inhibition was detected,[3]; wild type MDA-MB-231 cells,6 days
same,MTT staining of control cultures after 4 weeks of MPA treatment,"[4]; control (not transfected parental) PC3 cultures, 4 weeks",no MTT staining above background levels
same,MPA concentration to whose cytotoxic effect the cells were resistant,[4]; single cell-derived cultures from pooled MPA-resistant PC3 colonies,up to 50 μg/ml
same,Time after MPA treatment at which growth inhibition was detected,[4]; wild type PC3 cells,6 days
